# According to publication PMC3796549 (PLoS ONE, 2013):
# Like-named read-outs stand apart in the source and are kept apart here.
# Legend:
# PtpB from Mtb = molecular target: T1, PtpB from Mtb (Mycobacterium tuberculosis, UniProt P96830); assay: biochemical; assay type: biochemical
# T1 construct: made in house
# human PTP1B = molecular target: T2, human PTP1B (Homo sapiens, UniProt P18031); assay: biochemical; conditions: for IC50: pNPP substrate, mean ± SD, 3 experiments
# T2 construct: made in house
# T2 sequence (P18031 1-435): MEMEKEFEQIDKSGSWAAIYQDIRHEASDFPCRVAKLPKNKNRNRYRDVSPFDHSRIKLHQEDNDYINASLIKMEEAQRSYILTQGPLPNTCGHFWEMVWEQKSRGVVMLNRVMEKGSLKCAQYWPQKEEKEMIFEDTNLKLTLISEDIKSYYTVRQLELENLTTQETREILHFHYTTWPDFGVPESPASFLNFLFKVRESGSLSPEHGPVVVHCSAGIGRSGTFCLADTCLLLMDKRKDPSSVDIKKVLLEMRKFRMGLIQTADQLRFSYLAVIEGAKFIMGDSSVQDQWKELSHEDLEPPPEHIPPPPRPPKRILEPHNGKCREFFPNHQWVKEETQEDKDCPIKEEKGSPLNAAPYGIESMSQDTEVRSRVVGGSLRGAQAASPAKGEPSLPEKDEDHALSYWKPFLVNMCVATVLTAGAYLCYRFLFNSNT
# PtpB [1] = molecular target: T3, PtpB (Mycobacterium tuberculosis, UniProt P96830); assay: biochemical; conditions: for Ki: pNPP 0.2-12.8 mM, mean ± SD; for Type of inhibition: with respect to substrate pNPP
# T3 construct: made in house
# T3 sequence (P96830 1-276): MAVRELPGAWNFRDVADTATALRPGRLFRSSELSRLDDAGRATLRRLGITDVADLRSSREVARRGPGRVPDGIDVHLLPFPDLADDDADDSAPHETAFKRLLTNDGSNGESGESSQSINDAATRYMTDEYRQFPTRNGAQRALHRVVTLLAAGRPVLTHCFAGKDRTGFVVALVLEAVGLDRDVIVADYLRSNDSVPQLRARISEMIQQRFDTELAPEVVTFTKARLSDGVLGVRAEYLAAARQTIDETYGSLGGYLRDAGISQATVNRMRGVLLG
# PtpB [2] = molecular target: T3, PtpB; conditions: 300 µM inhibitor, PtpB 5 µM, 3 hours 37 °C
# trypsin = molecular target: T4, trypsin (Sus scrofa, UniProt P00761); assay: Inhibition of trypsin by the inhibitor itself; assay type: biochemical
# T4 construct: purchased Promega
# T4 sequence (P00761 9-231): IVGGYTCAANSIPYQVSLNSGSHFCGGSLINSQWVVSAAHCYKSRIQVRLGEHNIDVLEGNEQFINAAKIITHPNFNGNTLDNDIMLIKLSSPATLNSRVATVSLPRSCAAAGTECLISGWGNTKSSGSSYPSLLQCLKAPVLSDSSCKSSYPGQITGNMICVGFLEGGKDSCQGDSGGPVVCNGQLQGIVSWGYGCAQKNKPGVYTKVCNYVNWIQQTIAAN
# [3] = pNPP substrate, 37 °C, imidazole pH 7.0, mean ± SD, 3 experiments
# T1 sequence (P96830 1-276): as the sequence (P96830 1-276) above
SMILES,SI (Selectivity index) (human PTP1B),IC50 (human PTP1B) [µM],IC50 / Ki (PtpB [1]),Ki (PtpB [1]) [µM],Type of inhibition (PtpB [1]),IC50 (PtpB from Mtb; [3]) [µM],also measured
"O[C@@H]1OC[C@H](Cc2ccc3c(c2)OCO3)[C@H]1Cc1ccc2c(c1)OCO2 [α-Cub, α-cubebin]",,,,,,,PtpB enzymatic inhibition (in words) (PtpB from Mtb): not active; IC50 (PtpB from Mtb; pH 7): > 100 µM
"COc1c(C)c(O)c2c(c1-c1c(OC)c(C)c(O)c3c1C(=O)c1cc(C)cc(O)c1C3=O)C(=O)c1cc(C)cc(O)c1C2=O [compound 6016, trachypone]",0.4,7.1 ± 1.4,1.7,11.5 ± 1.7,Competitive,19.2 ± 6.7,
"CC(C)=CCc1c(O)ccc(C(=O)[C@H]2[C@@H](c3c(O)cc(/C=C/c4ccc(O)cc4O)cc3O)C=C(C)C[C@@H]2c2ccc(O)cc2O)c1O [KuwE, Kuwanol E]",5.1,9.6 ± 2.6,1.2,1.6 ± 0.1,Competitive,1.9 ± 0.5,Protection of PtpB catalytic site from proteolytic cleavage by trypsin (fragments m/z 1953 and m/z 2224) (PtpB [2]): protecting it from the proteolytic cleavage by trypsin; Inhibition of trypsin (trypsin): not able to inhibit trypsin
"CC(C)=CCc1c(C)c(CC=C(C)C)c2c(c1O)C(=O)c1c(O)cc(O)c(CC=C(C)C)c1C2 [PirIII, 1,3,8-trihydroxy-6-methyl-4,5,7-triprenylanthrone]",,11.8 ± 3.5,0.8,6.6 ± 2.7,Non-competitive,5.4 ± 0.6,
"COc1c(C2COc3cc(O)c(CC=C(C)C)c(O)c3C2=O)ccc(O)c1CC=C(C)C (centres unmarked) [M2, isosophoranone]",,,,,,19.8 ± 2.3,
"COc1ccc(CCC(=O)c2c(O)cc(OC)c(CC=C(C)C)c2OC)cc1CC=C(C)CCC=C(C)C [59-triMe, 4,2’,4’-trimethoxy-6’-hydroxy,3’-prenyl-3-geranyldihydrochalcone]",,,,,,> 100,
"COc1c(C2COc3cc(O)c(CCC(C)C)c(O)c3C2=O)ccc(O)c1CCC(C)C (centres unmarked) [M2H, tetra-hydro-isosophoranone]",,,,,,69.4 ± 4.5,
"O=C(O)/C=C/c1ccc(OC2O[C@H](CO)[C@@H](O)[C@H](O)[C@H]2O)c(O)c1 (some centres unmarked) [Caf, 4-O-glucosyl caffeic acid]",,,,,,> 100,PtpB enzymatic inhibition (in words) (PtpB from Mtb; up to 100 µM): not active
"CC(C)=CCC/C(C)=C/Cc1cc(CCC(=O)c2c(O)cc(O)c(CC=C(C)C)c2O)ccc1O [Ega1, 4,2’,4’,6’-tetrahydroxy-3’-prenyl-3-geranyldihydrochalcone]",1.6,20.9 ± 2.8,0.9,14.5 ± 2.3,Non-competitive,13.4 ± 2.6,
"CC(C)=CCc1c(C)c(CC=C(C)C)c2c(c1O)C(=O)c1c(O)cc(O)c(CC=C(CO)CO)c1C2 [∆3, 1,3,8-trihydroxy-6-methyl-5,7-diprenyl-4-γ,γ’dihydroxyprenyl-anthrone]",0.6,14.7 ± 2.1,2.0,13.4 ± 1.5,Non-competitive,26.7 ± 0.6,
"COc1ccc([C@@H]2CC(=O)c3c(O)cc(O[C@@H]4O[C@H](CO[C@@H]5O[C@@H](C)[C@H](O)[C@@H](O)[C@H]5O)[C@@H](O)[C@H](O)[C@H]4O)cc3O2)cc1O [Hesp, hesperidin]",,,,,,> 100,PtpB enzymatic inhibition (in words) (PtpB from Mtb; up to 100 µM): not active
"COc1c(C)c(OC(C)=O)c2c(c1-c1c(OC)c(C)c(OC(C)=O)c3c1C(=O)c1cc(C)cc(OC(C)=O)c1C3=O)C(=O)c1cc(C)cc(OC(C)=O)c1C2=O [Ac3, tetra-acetyl-trachypone]",0.9,31.2 ± 2.7,1.9,17.1 ± 4.5,Competitive,33.2 ± 4.9,
"C[N+](C)(C)CCc1c[nH]c2ccc(O)cc12.[I-] [Buf-I, bufotenine CH3I]",,,,,,> 100,PtpB enzymatic inhibition (in words) (PtpB from Mtb; up to 100 µM): not active
"O=C(/C=C/c1ccc(O)c(O)c1)O[C@@H]1C[C@@](OC(=O)/C=C/c2ccc(O)c(O)c2)(C(=O)O)C[C@@H](O)[C@@H]1O [Cyn, cynarin]",,,,,,> 100,PtpB enzymatic inhibition (in words) (PtpB from Mtb; up to 100 µM): not active
